As usually defined, the EC50 is the midpoint of the concentration-response curve.

Where two headings read alike, the source gives them in different places. No end group written: not given here.

Consider one substance from publication PMC11187126, “Structure and dynamics of the pyroglutamylated RF-amide peptide QRFP receptor GPR103” (Nature Communications, 2024).

The target of the assay is T1, GPR103 Y194^ECL2A (Homo sapiens, UniProt Q96P65, Y194A).
T1 construct: we used human full-length QRFPR-encoding plasmids; expressed in transfected cells; host or cells: HEK293 cells, pCAGGS vector
T1 sequence (Q96P65 1-431 Y194A): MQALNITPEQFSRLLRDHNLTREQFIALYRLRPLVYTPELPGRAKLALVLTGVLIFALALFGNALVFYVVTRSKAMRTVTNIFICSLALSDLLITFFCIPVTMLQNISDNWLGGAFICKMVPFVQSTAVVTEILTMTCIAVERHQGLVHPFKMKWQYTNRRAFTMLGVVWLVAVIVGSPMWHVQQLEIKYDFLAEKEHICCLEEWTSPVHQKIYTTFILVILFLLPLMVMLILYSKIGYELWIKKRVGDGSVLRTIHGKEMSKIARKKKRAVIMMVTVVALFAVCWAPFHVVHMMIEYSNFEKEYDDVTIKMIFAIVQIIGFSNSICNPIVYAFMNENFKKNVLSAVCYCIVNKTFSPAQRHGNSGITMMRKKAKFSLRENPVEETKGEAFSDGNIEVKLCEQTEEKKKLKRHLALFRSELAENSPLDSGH
The experiment in a line: TGFα shedding assay; Exp. level WT (1:10). Format: cell-based. The method, then: For the TGFα shedding assay and the flow cytometry analysis, we used human full-length QRFPR-encoding plasmids. Specifically, GPR103 was N-terminally modified with an HA signal sequence followed by a FLAG epitope and then a flexible linker ([…]; the FLAG epitope is underlined) and inserted into the pCAGGS vector. Plasmid encoding GPR103 mutants were generated using Quickchange Site-Directed Mutagensis kit (Agilent).
The TGFα shedding assay was performed as described previously with minor modifications. Plasmid transfection was performed in a 6-well plate with a mixture of 500 ng (per well in a 6-well plate) AP-TGFα-encoding plasmid and 200 ng GPR103-encoding plasmid. After 1-day culture, the transfected cells were harvested by trypsinization, pelleted by centrifugation at 190 × g for 5 min, and washed once with 5 mM HEPES (pH 7.4)-containing Hank’s Balanced Salt Solution (HBSS). After centrifugation, the cells were resuspended in 8 mL of the HEPES-containing HBSS. The cell suspension was seeded in a 96-well culture plate (cell plate) at a volume of 90 μL (per well hereafter) and incubated in a 37 °C incubator with 5% CO2 for 30 min. […] After spinning the cell plates at 190 × g for 2 min, 80 μL of conditioned media was transferred to an empty 96-well plate (conditioned media (CM) plate). Then, 80 μL of AP reaction solution (10 mM p-nitrophenylphosphate (p-NPP), 120 mM Tris-HCl (pH 9.5), 40 mM NaCl, and 10 mM MgCl2) was dispensed into the cell plates and the CM plates. Absorbance at 405 nm of the plates was measured using a microplate reader (SpectraMax 340 PC384, Molecular Devices) before and after 1-h incubation at room temperature. Ligand-induced AP-TGFα release was calculated by subtracting spontaneous AP-TGFα release signal from ligand-induced AP-TGFα release signal. The AP-TGFα release signals were fitted to a four-parameter sigmoidal concentration–response curve, using the Prism 10 software (GraphPad Prism). For each replicate experiment, the pEC50 parameter (negative logarithmic values of EC50 values) of the individual GPR103 mutants were normalized to that of the wild-type GPR103 performed in parallel, and resulting ∆pEC50 values were used to denote ligand response activity of the mutants. […]
Exp. le vel: WT (1:5 0)Exp. le vel: WT (1:5 0)Exp. le vel: WT (1:5 0)Exp. le vel: WT (1:2 0)Exp. le vel: WT (1:2 0)Exp. le vel: WT (1:1 0) […]
L1 4N - t e r mA F2 5N - t e r mA I 2 6N - t e r mA Y 2 9N - t e r mA C 9 82 .5 7A T10 22 .6 1A Exp . l eve l: WT (1 :5)Exp . l evel : >WT (1 :1)Exp. le vel: WT (1:2 0)Exp. le vel: WT (1:2 0)Exp. le vel: WT (1:5 0)Exp . l eve l: WT (1 :1) […]
Exp. le vel: WT (1:1 0)Exp. le vel: WT (1:2 0) C 1 1 83 .2 5AExp. le vel: WT (1:5 0)Exp. le vel: WT (1:5 0)Exp. le vel: WT (1:2 0)Exp . l eve l: WT (1 :5) […]
Exp. le vel: WT (1:5 0)Exp. le vel: WT (1:1 0)Exp. le vel: WT (1:5 0) E203ECL2AExp . l evel : >WT (1 :1)Exp. le vel: WT (1:5 0)Exp. le vel: WT (1:5 0) […]
Exp . l eve l: WT (1 :1) F28Exp. le vel: WT (1:5 0) C 2 8 56 .4 7AExp. le vel: WT (1:2 0) WExp. le vel: WT (1:2 0) F28Exp. le vel: WT (1:5 0)Exp . l evel : >WT (1 :1) […]
Exp. le vel: WT (1:5 0)Exp. le vel: WT (1:5 0) C 3 2 77 .4 8AExp . l eve l: WT (1 :5)Exp . l evel : >WT (1 :1)Exp . l evel : >WT (1 :1) […]
Suppl eme nt ary Figure 1 | Mutational analysis of GPR103. […]
mutants. Data are presented as mean values ± SEM, normally n=3-5; dots), each performed in triplicate. b-d Cell-surface expression (b) and QRFP26-in-duced activation of GPR103 (c, d) were analyzed by the flow cytometry and the TGFα shedding assay, respectively. From the concentration–response curves (a), Emax (c) and ΔpEC50 (d) values relative to the wild type were calculated. Colors in the mutant bars indicate an expression level matching to that of titrated wild type. Statistical analyses were performed using the ordinary one-way ANOVA followed by Dunnett tests with the expression-matched […]

Turning to TSGPLGNLAEELNGYSRKKGGFSFRF-NH2 [QRFP26], the Emax was determined as 91.33 % WT (Exp. #1); 94.38 % WT (Exp. #2); 115.19 % WT (Exp. #3); 100% (mean, read-out: Emax); 102 ± 6.1% (n = 3, read-out: Emax). Moreover, the EC50 (n = 3) was 93.3 nM.
